According to PMC12366525, “Characterization of allosteric modulators that disrupt androgen receptor co-activator protein-protein interactions to alter transactivation–Drug leads for metastatic castration resistant prostate cancer” (SLAS discovery : advancing life sciences R & D, 2023):
Read-outs that look alike come from different tables or passages of the source.

Key:
[1] = target: T1, AR-LBD::TIF2-Box III-LXXLL-Peptide (Homo sapiens, UniProt P10275); experiment: AR-LBD::TIF2-Box III-LXXLL-peptide AlphaScreen binding assay; settings: DHT-induced TIF2 box 3 LXXLL-peptide binding to recombinant AR-LBD
T1 construct: The pET28a-AR-LBD (622–919) construct [78] was a gift; made in house
T1 sequence (P10275 622-919): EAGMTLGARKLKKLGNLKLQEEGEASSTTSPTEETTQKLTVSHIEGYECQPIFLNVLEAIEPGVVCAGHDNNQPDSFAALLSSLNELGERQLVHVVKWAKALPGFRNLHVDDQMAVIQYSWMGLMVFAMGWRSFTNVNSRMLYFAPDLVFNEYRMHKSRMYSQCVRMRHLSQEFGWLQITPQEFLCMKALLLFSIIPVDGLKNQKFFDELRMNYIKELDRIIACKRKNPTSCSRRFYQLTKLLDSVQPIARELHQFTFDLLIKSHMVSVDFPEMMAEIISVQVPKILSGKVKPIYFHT
Text: The pET28a-AR-LBD (622–919) construct was a gift from Dr. Fletterick and Dr. Nguyen of University of California San Francisco. Biotinylated (Biotin-HN-[…]-CONH2) and non-biotinylated TIF2-box-III (738–756) peptide (H2N-[…]-CONH2) were synthesized by the Peptide & Peptoid Synthesis Facility, at the University of Pittsburgh Health Sciences Core Research Facilities. ALPHAScreen streptavidin donor beads (SA-DB) and nickel chelate acceptor beads (Ni-AB) were purchased from Perkin Elmer (Waltham, MA). The assay was performed in 384-well white opaque plates (Greiner BioOne, #781080). […] 18 uL of the SA-DB bound biotinylated TIF2 peptide mixture was added to the assay plate before 5 μL of compounds were transferred into assay wells and 27 μL of the AlphaScreen donor and acceptor bead mixture was added to the plate. 32 wells containing 0.5% DMSO provided maximum controls and 32 wells containing a 500-fold excess of unlabeled TIF2-box-III (75 μM) were used as minimum controls. The combined bead-protein-peptide-compound mixture was incubated for 1 h at room temperature in the dark, and then the RLU’s were acquired at 520 nm after excitation at 680 nm on an Envision plate reader (Perkin Elmer, Waltham, MA) as described previously.

AR-LBD and TIF2 = target: T2, AR-LBD and TIF2 (Homo sapiens, UniProt P10275); experiment: TIF2 mammalian 2-hybrid (M2H) assay; format: cell-based; settings: for IC50: HEK 293 cells, 25 nM DHT, 27 h compound exposure, read-out: M2H AR-TIF2 CoA Recruitment IC50
T2 construct: AR-LBD amino acids 658–919 expressed as a fusion protein with Gal4-DBD; expressed in transfected cells; host or cells: HEK 293
T2 sequence (P10275 658-919): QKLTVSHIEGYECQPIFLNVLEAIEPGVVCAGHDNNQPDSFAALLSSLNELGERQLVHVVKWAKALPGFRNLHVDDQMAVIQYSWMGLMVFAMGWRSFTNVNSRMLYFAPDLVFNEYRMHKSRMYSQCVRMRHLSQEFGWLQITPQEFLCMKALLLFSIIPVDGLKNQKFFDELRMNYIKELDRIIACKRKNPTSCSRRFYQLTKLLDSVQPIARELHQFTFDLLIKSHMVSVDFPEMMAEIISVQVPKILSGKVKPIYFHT
Text: The 5xGAL4-TATA-luciferase reporter plasmid was a gift from Dr. Richard Maurer from the Oregon Health and Science University, and constructs pGAL4-hAR-658–919 (AR-LBD amino acids 658–919 expressed as a fusion protein with Gal4-DBD), pVP16-SRC1 (full--length SRC1 expressed as a fusion with VP16 activation domain) and pVP16-Empty vector were kindly provided to us by Dr. Elizabeth Wilson, from UNC Chapel Hill. pVP16-TIF2 was generated as described previously. HEK 293 cells were transiently co-transfected with 5 ng of pGal4-AR-LBD, 10 ng of either pVP16-TIF2 or pVP16-SRC1, and 20 ng of the 5xGal4-TATA-Luc reporter as described previously. HEK 293 cells were bulk co-transfected with the three plasmids that had been individually incubated with Fugene 6 at a 3:1 ratio for 25 min at room temperature (RT) in serum free media (SFM) and then combined with HEK 293 cells that were suspended in DMEM (Cellgro10013CV) with 2 mM L-glutamine (Invitrogen) that was supplemented with 10% fetal bovine serum, and 5000 cells in a volume of 40 μL were seeded into the wells of white opaque 384-well assay plates (Greiner Bio-one, #781080) and cultured overnight at 37 °C, 5% CO2, and 95% humidity. […] 25 μL of BrightGlo® reagent was added to the plate and the relative luminescence units (RLUs) were captured on a SpectraMax M5e microtiter plate reader (Molecular Devices, LLC, San Jose, CA).

22Rv1 cells = experiment: Prostate cancer cell line growth inhibition assay, 22Rv1; format: cell-based; settings: read-out: 22Rv1 GI50 (AR+)
Description: The PC-3, DU-145, LNCaP, C4–2, and 22Rv1 PC cell line growth inhibition assays have been described previously. On day 1, each PC cell line was harvested, counted, and seeded into two 384-well assay plates, a time zero (T0) and a time 72 h (T72) plate. PC cell lines were all seeded at 1000 cells per well in 45 μL of tissue culture media in uncoated white clear bottom 384-well assay plates (VWR, # 82050–076) using a Matrix electronic multichannel pipette (Thermo Fisher Scientific, Waltham, MA) and cultured overnight at 37 °C, 5% CO2, and 95% humidity. On day 2, 25 μL of the Cell Titer Glo (CTG) (Promega Corporation, Madison, WI) detection reagent was dispensed into the wells of the T0 assay plate using a Matrix electronic multichannel pipette, and the RLUs were captured on the SpectraMax M5e (Molecular Devices LLC, Sunnyvale, CA) microtiter plate reader. Also on day 2, 5 μL of compounds were transferred into the test wells of the T72 384-well assay plates which were returned to the incubator for 72 h. Control wells received DMSO alone. On day 5, 25 μL of the CTG detection reagent was dispensed into the wells of the T72 assay plate using a Matrix electronic multichannel pipette, and the RLU’s were captured on the SpectraMax M5e microtiter plate reader platform.
In 384-well assays, DMSO minimum (n = 32) and maximum (n = 32) plate control wells were utilized to calculate signal-to-background ratios (S:B) and Z’-factor coefficient assay performance quality control statistics, and to normalize the signals of compound treated wells and to represent 0% and 100% respectively. For the 96-well AR-LBD H^3-DHT radioligand binding assay, eight minimum and maximum plate control wells were utilized to normalize the data. For the PC cell line growth inhibition assays we used the DMSO control data from the T0 and T72 assay plates to assess the dynamic range of the T0 to T72 cell growth, and to calculate S:B ratios and Z’-factor coefficient statistics for the assay signal window (T0 to T72). To normalize the 72 h compound exposure PC growth inhibition data, the signals from the compound treated wells were processed and expressed as% of the T72 DMSO plate controls. IC50 and GI50 values for each of the bioassays were calculated using Graph-Pad Prism 9 software to plot and fit data to curves using the Sigmoidal dose response variable slope equation Y = Bottom + [Top-Bottom]/ [1 + 10^^(LogEC50-X)*HillSlope].

**Q.** With `Cc1ccccc1-c1cc(O)c2c(c1)CN(c1nc(C(N)=O)cs1)CCO2` [S1–1] as the compound, how does the IC50 [1] read?
**A.** 21.4 µM

**Q.** And the IC50 (AR-LBD and TIF2)?
**A.** 5.77 µM

**Q.** What about the GI50 (22Rv1 cells; Homo sapiens, 22Rv1, 72 h) of the same compound?
**A.** 55.5 µM

**Q.** `Cc1ccccc1-c1cc(O)c2c(c1)CN(c1nccs1)CCO2` [S1–3] was tested. Which IC50 [1] did it give?
**A.** 44.1 µM

**Q.** What about the IC50 (AR-LBD and TIF2) of the same compound?
**A.** 7.46 µM

**Q.** What about the GI50 (22Rv1 cells; 72 h) of the same compound?
**A.** 75.2 µM

**Q.** With `Cc1nsc(NC(=O)N2CCC(Sc3ccccc3C)CC2)n1` [S2–6] as the compound, how does the IC50 [1] read?
**A.** 64.2 µM

**Q.** And the IC50 (AR-LBD and TIF2)?
**A.** 0.08 µM

**Q.** And the “CoA selectivity, lower IC50 for TIF2 than SRC1” value (AR-LBD and TIF2; M2H assays)?
**A.** ~ 5 fold

**Q.** What about the GI50 (22Rv1 cells; Homo sapiens, 22Rv1, 72 h) of the same compound?
**A.** 17.6 µM

**Q.** Which results are given for `Cc1c(-c2ccccc2F)[nH]c2ccc(CNC(=O)CCc3cn[nH]c3)cc12` [S3–11]?
**A.** IC50 [1]: 88.3 µM; IC50 (AR-LBD and TIF2): 6.38 µM; GI50 (22Rv1 cells; Homo sapiens, 22Rv1, 72 h): 15 µM

**Q.** How did the IC50 (AR-LBD and TIF2) turn out when `Cc1c(-c2ccccc2F)[nH]c2ccc(CNC(=O)CCc3cnccn3)cc12` [S3–12] was run?
**A.** 5.44 µM

**Q.** What about the GI50 (22Rv1 cells; Homo sapiens, 22Rv1, 72 h) of the same compound?
**A.** 20.5 µM

**Q.** Which results are given for `CC(=O)NCCC(=O)NCc1ccc2[nH]c(-c3ccccc3F)c(C)c2c1` [S3–13]?
**A.** IC50 [1]: 91.6 µM; IC50 (AR-LBD and TIF2): 18 µM; GI50 (22Rv1 cells; Homo sapiens, 22Rv1, 72 h): > 100 µM

**Q.** Which IC50 [1] does the source give for `Cc1c(-c2ccccc2F)[nH]c2ccc(CNC(=O)c3ccc(CO)o3)cc12` [S3–14] here?
**A.** 28.3 µM

**Q.** And the IC50 (AR-LBD and TIF2)?
**A.** 2.43 µM

**Q.** And the GI50 (22Rv1 cells; Homo sapiens, 22Rv1, 72 h)?
**A.** 102 µM

**Q.** How did the IC50 [1] turn out when `Cc1c(-c2ccc(F)cc2)[nH]c2ccc(CNC(=O)c3ccc(CO)o3)cc12` [S3–15] was run?
**A.** 19.6 µM

**Q.** What about the IC50 (AR-LBD and TIF2) of the same compound?
**A.** 3.32 µM

**Q.** And the GI50 (22Rv1 cells; Homo sapiens, 22Rv1, 72 h)?
**A.** 17.4 µM
